# Reference: patent US20220127247A1, “N-(PYRIDIN-2-YL)PYRIDINE-SULFONAMIDE DERIVATIVES AND THEIR USE IN THE TREATMENT OF DISEASE” (NOVARTIS AG, priority 2019, published 2022)
# Molecular target: T1, delF508-CFTR (Homo sapiens, UniProt P13569, DEL508-508)
# T1 construct: expressed in transfected cells
# Experiment: Measurement of delF508-CFTR-HRP surface expression in CFBE41o- cells
# Assay type: cell-based
# Conditions: for EC50: HRP-tagged delF508-CFTR in CFBE41o- cells, 24 h with compound, luminescence, 10-point curve, top 10 μM; for Emax: efficacy relative to reference compound 3-(6-(1-(2,2-difluorobenzo[d][1,3]dioxol-5-yl)cyclopropane-1-carboxamido)-3-methylpyridin-2-yl)benzoic acid, CFBE41o- cells, 24 h, read-out: DelF508-CFTR-HRP Amax %
# Method in brief: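 CFBE41o- cells stably expressing delF508-CFTR with HRP in the fourth extracellular loop, induced with 500 ng/mL doxycycline for 48 h, then treated with compound (top 10 μM, 10-point 3-fold) for 24 h at 37° C. Surface HRP detected by luminescence with cell-impermeant substrate; EC50 from logistic fit of triplicates, normalized to lowest concentration.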
# T1 sequence (P13569 with tags, fused parts or gaps DEL508-508): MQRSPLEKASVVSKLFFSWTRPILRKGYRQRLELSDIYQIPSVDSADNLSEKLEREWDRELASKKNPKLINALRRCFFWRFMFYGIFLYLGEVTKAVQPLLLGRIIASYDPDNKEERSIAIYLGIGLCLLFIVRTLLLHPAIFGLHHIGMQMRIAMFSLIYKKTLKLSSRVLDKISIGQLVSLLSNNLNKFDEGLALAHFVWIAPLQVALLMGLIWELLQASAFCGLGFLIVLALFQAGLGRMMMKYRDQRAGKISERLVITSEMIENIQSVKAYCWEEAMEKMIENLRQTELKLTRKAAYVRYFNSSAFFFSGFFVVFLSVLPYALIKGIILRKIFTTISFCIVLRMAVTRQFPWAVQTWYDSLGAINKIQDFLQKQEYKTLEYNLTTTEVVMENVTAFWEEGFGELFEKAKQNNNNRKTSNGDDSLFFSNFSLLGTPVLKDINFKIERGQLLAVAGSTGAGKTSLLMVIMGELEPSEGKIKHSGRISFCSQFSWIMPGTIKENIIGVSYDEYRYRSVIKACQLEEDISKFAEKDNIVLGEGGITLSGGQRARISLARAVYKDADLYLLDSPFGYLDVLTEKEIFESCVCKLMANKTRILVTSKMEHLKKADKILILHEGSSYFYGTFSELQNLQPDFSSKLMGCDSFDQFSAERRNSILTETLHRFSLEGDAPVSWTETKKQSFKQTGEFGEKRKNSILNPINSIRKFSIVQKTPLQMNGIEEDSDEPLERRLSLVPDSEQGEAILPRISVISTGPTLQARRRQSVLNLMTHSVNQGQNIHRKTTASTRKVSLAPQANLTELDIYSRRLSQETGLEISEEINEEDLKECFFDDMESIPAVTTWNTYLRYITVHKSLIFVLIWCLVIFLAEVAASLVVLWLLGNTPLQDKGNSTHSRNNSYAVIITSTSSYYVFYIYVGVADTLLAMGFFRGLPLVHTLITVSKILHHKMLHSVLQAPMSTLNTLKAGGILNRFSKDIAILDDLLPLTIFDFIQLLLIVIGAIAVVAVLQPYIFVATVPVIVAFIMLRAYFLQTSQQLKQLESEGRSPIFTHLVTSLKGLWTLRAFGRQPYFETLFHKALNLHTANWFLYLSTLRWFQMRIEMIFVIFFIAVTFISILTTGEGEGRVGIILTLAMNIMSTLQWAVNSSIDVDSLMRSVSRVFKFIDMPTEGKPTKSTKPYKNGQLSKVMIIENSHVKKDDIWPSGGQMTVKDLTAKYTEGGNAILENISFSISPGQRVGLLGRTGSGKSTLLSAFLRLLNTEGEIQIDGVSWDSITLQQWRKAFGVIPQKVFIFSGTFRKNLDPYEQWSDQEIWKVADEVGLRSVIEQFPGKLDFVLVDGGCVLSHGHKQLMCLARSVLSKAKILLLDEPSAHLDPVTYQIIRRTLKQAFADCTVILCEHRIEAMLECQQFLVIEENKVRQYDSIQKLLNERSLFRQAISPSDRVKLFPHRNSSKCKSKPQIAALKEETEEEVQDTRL
Compound,EC50 [nM],Emax [%]
"Cc1ccccc1-c1nc(NS(=O)(=O)c2cccc(N3CCC(CC(=O)O)CC3)n2)ccc1C(F)(F)F [Compound 14, 2-(1-(6-(N-(6-(o-tolyl)-5-(trifluoromethyl)pyridin-2-yl)sulfamoyl)pyridin-2-yl)piperidin-4-yl)acetic Acid]",2550,283
"Cc1c(F)cccc1-c1nc(NS(=O)(=O)c2cccc(N(C)CC(C)(C)C(=O)O)n2)ccc1C(F)(F)F [Compound 47, 3-((6-(N-(6-(3-fluoro-2-methylphenyl)-5-(trifluoromethyl)pyridin-2-yl)sulfamoyl)pyridin-2-yl)(methyl)amino)-2,2-dimethylpropanoic Acid]",1820,496
"Cc1ccccc1-c1nc(NS(=O)(=O)c2cccc(N(C)CC(C)(C)C(=O)O)n2)ccc1C(F)(F)F [Compound 46, 2,2-dimethyl-3-(methyl(6-(N-(6-(o-tolyl)-5-(trifluoromethyl)pyridin-2-yl)sulfamoyl)pyridin-2-yl)amino)propanoic Acid]",1810,493
"Cc1cccc(C)c1-c1nc(NS(=O)(=O)c2cccc(NCCCCC(=O)O)n2)ccc1Cl [Compound 4, 5-((6-(N-(5-chloro-6-(2,6-dimethylphenyl)pyridin-2-yl)sulfamoyl)pyridin-2-yl)amino)pentanoic Acid]",2190,–
"CCC(NC(=O)C1CCC(Nc2cccc(S(=O)(=O)Nc3ccc(Cl)c(-c4ccccc4C)n3)n2)CC1)C(=O)O (centres unmarked) [Compound 136, 2-(4-((6-(N-(5-chloro-6-(o-tolyl)pyridin-2-yl)sulfamoyl)pyridin-2-yl)amino)cyclohexane-1-carboxamido)butanoic Acid]",2310,952
"Cc1c(F)cccc1-c1nc(NS(=O)(=O)c2cccc(N3CCCC(C)(CC(=O)O)C3)n2)ccc1C(F)(F)F (centres unmarked) [Compound 50, 2-(1-(6-(N-(6-(3-fluoro-2-methylphenyl)-5-(trifluoromethyl)pyridin-2-yl)sulfamoyl)pyridin-2-yl)-3-methylpiperidin-3-yl)acetic Acid]",2100,867
"CC1(C(=O)O)CCN(c2cccc(S(=O)(=O)Nc3ccc(C(F)(F)F)c(-c4ccccc4-c4ccncc4)n3)n2)CC1 [Compound 27, 4-methyl-1-(6-(N-(6-(2-(pyridin-4-yl)phenyl)-5-(trifluoromethyl)pyridin-2-yl)sulfamoyl)pyridin-2-yl)piperidine-4-carboxylic Acid]",2070,189
"Cc1ccccc1-c1nc(NS(=O)(=O)c2cccc(N3CCC[C@@](C)(CC(=O)O)C3)n2)ccc1C(F)(F)F (single isomer, unassigned) [Compound 122]",1620,785
"CC1(C(=O)O)CCN(c2cccc(S(=O)(=O)Nc3ccc(C(F)(F)F)c(-c4ccccc4Oc4ccccc4)n3)n2)CC1 [Compound 28, 4-methyl-1-(6-(N-(6-(2-phenoxyphenyl)-5-(trifluoromethyl)pyridin-2-yl)sulfamoyl)pyridin-2-yl)piperidine-4-carboxylic Acid]",1450,442
"CC1(C(=O)O)CCN(c2cccc(S(=O)(=O)Nc3ccc(Cl)c(-c4ccccc4-c4ccccc4)n3)n2)CC1 [Compound 19, 1-(6-(N-(6-([1,1′-biphenyl]-2-yl)-5-chloropyridin-2-yl)sulfamoyl)pyridin-2-yl)-4-methylpiperidine-4-carboxylic Acid]",2240,378
"CC1(CC(=O)O)CCN(c2cccc(S(=O)(=O)Nc3ccc(C(F)(F)F)c(-c4ccccc4-c4ccccc4)n3)n2)CC1 [Compound 23, 2-(1-(6-(N-(6-([1,1′-biphenyl]-2-yl)-5-(trifluoromethyl)pyridin-2-yl)sulfamoyl)pyridin-2-yl)-4-methylpiperidin-4-yl)acetic acid]",1260,–
"Cc1ccccc1-c1nc(NS(=O)(=O)c2cccc(N3CCCCC3CCC(=O)O)n2)ccc1C(F)(F)F (centres unmarked) [Compound 98, 3-(1-(6-(N-(6-(o-tolyl)-5-(trifluoromethyl)pyridin-2-yl)sulfamoyl)pyridin-2-yl)piperidin-2-yl)propanoic Acid]",1540,–
"Cc1ccc(F)cc1-c1nc(NS(=O)(=O)c2cccc(N(CCCC(=O)O)CC3CC3)n2)ccc1C(F)(F)F [Compound 104, 4-((cyclopropylmethyl)(6-(N-(6-(5-fluoro-2-methylphenyl)-5-(trifluoromethyl)pyridin-2-yl)sulfamoyl)pyridin-2-yl)amino)butanoic Acid]",1280,–
"Cc1ccccc1-c1nc(NS(=O)(=O)c2cccc(N(CCC(=O)O)C(C)C)n2)ccc1C(F)(F)F [Compound 91, 3-(isopropyl(6-(N-(6-(o-tolyl)-5-(trifluoromethyl)pyridin-2-yl)sulfamoyl)pyridin-2-yl)amino)propanoic Acid]",1670,–
"CCc1ccccc1-c1nc(NS(=O)(=O)c2cccc(N3CCCC(CCCC(=O)O)C3)n2)ccc1C(F)(F)F (centres unmarked) [Compound 83, 4-(1-(6-(N-(6-(2-ethylphenyl)-5-(trifluoromethyl)pyridin-2-yl)sulfamoyl)pyridin-2-yl)piperidin-3-yl)butanoic Acid]",1450,–
"Cc1ccc(F)cc1-c1nc(NS(=O)(=O)c2cccc(N(C)CC(C)(C)C(=O)O)n2)ccc1C(F)(F)F [Compound 45, 3-((6-(N-(6-(5-fluoro-2-methylphenyl)-5-(trifluoromethyl)pyridin-2-yl)sulfamoyl)pyridin-2-yl)(methyl)amino)-2,2-dimethylpropanoic Acid]",1570,598

# Continued by falling EC50, values first:
EC50 [nM],Emax [%],Compound
4460,84,"Cc1cccc(C)c1-c1nc(NS(=O)(=O)c2ccnc(NC(C)CC(=O)O)c2)ccc1Cl (centres unmarked) [Compound 142, 3-((4-(N-(5-chloro-6-(2,6-dimethylphenyl)pyridin-2-yl)sulfamoyl)pyridin-2-yl)amino)butanoic Acid]"
2920,209,"CCN(CCC(=O)O)c1cc(S(=O)(=O)Nc2ccc(Cl)c(-c3c(C)cccc3C)n2)ccn1 [Compound 140, 3-((4-(N-(5-chloro-6-(2,6-dimethylphenyl)pyridin-2-yl)sulfamoyl)pyridin-2-yl)(ethyl)amino)propanoic Acid]"
2910,330,"Cc1ccccc1-c1nc(NS(=O)(=O)c2cccc(N3CCC(CCC(=O)O)CC3)n2)ccc1C(F)(F)F [Compound 79, 3-(1-(6-(N-(6-(o-tolyl)-5-(trifluoromethyl)pyridin-2-yl)sulfamoyl)pyridin-2-yl)piperidin-4-yl)propanoic Acid]"
2070,920,"Cc1ccccc1-c1nc(NS(=O)(=O)c2cccc(N3CCC[C@H](CC(=O)O)C3)n2)ccc1C(F)(F)F [Compound 59, (R)-2-(1-(6-(N-(6-(o-tolyl)-5-(trifluoromethyl)pyridin-2-yl)sulfamoyl)pyridin-2-yl)piperidin-3-yl)acetic Acid]"
2000,–,"Cc1ccccc1-c1nc(NS(=O)(=O)c2cccc(N3CCCC(CCCC(=O)O)C3)n2)ccc1C(F)(F)F (centres unmarked) [Compound 75, 4-(1-(6-(N-(6-(o-tolyl)-5-(trifluoromethyl)pyridin-2-yl)sulfamoyl)pyridin-2-yl)piperidin-3-yl)butanoic Acid]"
1900,–,"Cc1ccc(F)cc1-c1nc(NS(=O)(=O)c2cccc(N(CCC(=O)O)CCC(F)(F)F)n2)ccc1C(F)(F)F [Compound 151, 3-((6-(N-(6-(5-fluoro-2-methylphenyl)-5-(trifluoromethyl)pyridin-2-yl)sulfamoyl)pyridin-2-yl)(3,3,3-trifluoropropyl)amino)propanoic Acid]"
1800,372,"Cc1ccccc1-c1nc(NS(=O)(=O)c2cccc(N3CCC(CC(=O)O)C3)n2)ccc1C(F)(F)F (centres unmarked) [Compound 32, 2-(1-(6-(N-(6-(o-tolyl)-5-(trifluoromethyl)pyridin-2-yl)sulfamoyl)pyridin-2-yl)pyrrolidin-3-yl)acetic Acid]"
1730,297,"Cc1cccc(C)c1-c1nc(NS(=O)(=O)c2cccc(N3CCC[C@H]3c3nnn[nH]3)n2)ccc1Cl [Compound 124, (S)-6-(2-(1H-tetrazol-5-yl)pyrrolidin-1-yl)-N-(5-chloro-6-(2,6-dimethylphenyl)pyridin-2-yl)pyridine-2-sulfonamide]"
1700,742,"CN(CCC(=O)O)c1cccc(S(=O)(=O)Nc2ccc(C(F)(F)F)c(-c3ccccc3C3CC3)n2)n1 [Compound 38, 3-((6-(N-(6-(2-cyclopropylphenyl)-5-(trifluoromethyl)pyridin-2-yl)sulfamoyl)pyridin-2-yl)(methyl)amino)propanoic Acid]"
1590,–,"Cc1ccccc1-c1nc(NS(=O)(=O)c2cccc(N(CCCCC(=O)O)C(C)C)n2)ccc1C(F)(F)F [Compound 101, 5-(isopropyl(6-(N-(6-(o-tolyl)-5-(trifluoromethyl)pyridin-2-yl)sulfamoyl)pyridin-2-yl)amino)pentanoic Acid]"
1520,529,"Cc1ccc(F)cc1-c1nc(NS(=O)(=O)c2cccc(N3CCC(C)(CC(=O)O)CC3)n2)ccc1C(F)(F)F [Compound 6, 2-(1-(6-(N-(6-(5-fluoro-2-methylphenyl)-5-(trifluoromethyl)pyridin-2-yl)sulfamoyl)pyridin-2-yl)-4-methylpiperidin-4-yl)acetic Acid]"
1310,909,"CC1(CC(=O)O)CCN(c2cccc(S(=O)(=O)Nc3ccc(C(F)(F)F)c(-c4ccccc4C4CCC4)n3)n2)CC1 [Compound 24, 2-(1-(6-(N-(6-(2-cyclobutylphenyl)-5-(trifluoromethyl)pyridin-2-yl)sulfamoyl)pyridin-2-yl)-4-methylpiperidin-4-yl)acetic Acid]"
